The values below are quoted from earlier work in patent publication US20150157714A1, “IMPLEMENTATION OF NON-PATHOGENIC BIOLUMINESCENT BACTERIA AS A SUB-MICRON LIGHT EMITTING SOURCE FOR PHOTO-DYNAMIC THERAPY IN THE LUNGS” (priority 2013, published 2015).

System in the first data set: not given
Particulars: absorption spectra wavelengths for photochemical interactions.
Consider `O=C([O-])c1ccccc1-c1c2cc(Br)c(=O)c(Br)c-2oc2c(Br)c([O-])c(Br)cc12.[Na+].[Na+]` [Eosin Y], for which the “Spectral Absorption Ranges and Peaks” value is 490-530 nm.
`CN(C)c1ccc(C(=C2C=CC(=[N+](C)C)C=C2)c2ccc(N(C)C)cc2)cc1` [Crystal Violet]: the “Spectral Absorption Ranges and Peaks” value is 550-610 nm.
In the case of BPD-ma, the “Spectral Absorption Ranges and Peaks” value is 689 nm.
`CN(C)c1ccc(C(=C2C=CC(=[N+](C)C)C=C2)c2c(O)c(S(=O)(=O)[O-])cc3cc(S(=O)(=O)[O-])ccc23)cc1.[Na+]` [Lissamine green]: the “Spectral Absorption Ranges and Peaks” value is 633 nm.
As for `CC(=O)Nc1ccc2nc3c4ccccc4c(=N)cc-3oc2c1.Cl` [Darrow Red], the “Spectral Absorption Ranges and Peaks” value is recorded as 450-550 nm.
Turning to `O=C([O-])C1=NN(c2ccc(S(=O)(=O)[O-])cc2)C(=O)C1N=Nc1ccc(S(=O)(=O)[O-])cc1.[Na+].[Na+].[Na+]` (stereo not drawn) [Tartrazine], the “Spectral Absorption Ranges and Peaks” value is 400-460 nm.
For `Cc1cc2nc3ccc(N(C)C)cc3[s+]c2cc1N.[Cl-]` [Toluidine Blue], the “Spectral Absorption Ranges and Peaks” value was 560+ nm.
For the compound `O=S(=O)([O-])c1ccc(N=Nc2cc(S(=O)(=O)[O-])c3ccccc3c2O)c2ccccc12.[Na+].[Na+]` [Carmoisine azorubine], the “Spectral Absorption Ranges and Peaks” value is recorded as 515 nm.
As for `CCOC(=O)C1=Cc2c3nc(cc4nc(cc5[n-]c(cc6[n-]c2c(C)c6CC)c(C)c5CC)C(C)=C4CC)[C@@H](C)[C@]13CC.[Cl-].[Cl-].[Sn]` [SnEt2 (Purlytin), SnEt2], the “Spectral Absorption Ranges and Peaks” value was 660 nm.
As to Acid Fuchsin, the “Spectral Absorption Ranges and Peaks” value was 530-560 nm.
Turning to `CCOC(=O)C1=Cc2c3nc(cc4nc(cc5[n-]c(cc6[n-]c2c(C)c6CC)c(C)c5CC)C(C)=C4CC)[C@@H](C)[C@]13CC.[Cl-].[Cl-].[Sn]` (racemic) [Tin etiopurpurin], the “Spectral Absorption Ranges and Peaks” value is 660 nm.
For `CCN(Cc1cccc(S(=O)(=O)O)c1)c1ccc(C(=C2C=CC(=[N+](CC)Cc3cccc(S(=O)(=O)O)c3)C=C2)c2ccc(S(=O)(=O)O)cc2)cc1.[Na+].[Na+]` [Light Green SF], the “Spectral Absorption Ranges and Peaks” value is recorded as 590+ nm.
For `O=C([O-])c1c(Cl)c(Cl)c(Cl)c(Cl)c1-c1c2cc(Br)c(=O)c(Br)c-2oc2c(Br)c([O-])c(Br)cc12.[Na+].[Na+]` [Phloxine B], the “Spectral Absorption Ranges and Peaks” value is 520+ nm.
On to `C=Cc1c(C)c2cc3nc(c(CC(=O)N[C@@H](CC(=O)O)C(=O)O)c4[nH]c(cc5nc(cc1[nH]2)C(C)=C5CC)c(C)c4C(=O)O)[C@@H](CCC(=O)O)[C@@H]3C` [Talaporfin (LS11, MACE, Npe6), Talaporfin], for which the “Spectral Absorption Ranges and Peaks” value is 660 nm.
On to `Cc1c(C(=O)O)c(O)cc2c1C(=O)c1c(O)c(C3O[C@H](CO)[C@@H](O)[C@H](O)[C@H]3O)c(O)c(O)c1C2=O` (stereo in doubt) [Carmine], for which the “Spectral Absorption Ranges and Peaks” value is 500-570 nm.
Regarding `CC1=C(/C=C/C(C)=C/C=C/C(C)=C/C=C/C=C(C)/C=C/C=C(C)/C=C/C2=C(C)CCCC2(C)C)C(C)(C)CCC1` [Beta carotene], the “Spectral Absorption Ranges and Peaks” value is given as 470 nm.
Take `CCN(Cc1cccc(S(=O)(=O)[O-])c1)c1ccc(C(=C2C=CC(=[N+](CC)Cc3cccc(S(=O)(=O)[O-])c3)C=C2)c2ccc(O)cc2S(=O)(=O)[O-])cc1.[Na+].[Na+]` [Fast Green]: the “Spectral Absorption Ranges and Peaks” value is reported as 560+ nm.
As to Basic Fuchsin, the “Spectral Absorption Ranges and Peaks” value is listed as 520-570 nm.
Consider `O=C([O-])c1c(Cl)c(Cl)c(Cl)c(Cl)c1-c1c2cc(I)c(=O)c(I)c-2oc2c(I)c([O-])c(I)cc12.[Na+].[Na+]` [Rose bengal], for which the “Spectral Absorption Ranges and Peaks” value is given as 548 nm.
Take `CN(C)c1ccc(C(=C2C=CC(=[N+](C)C)C=C2)c2ccc([N+](C)(C)C)cc2)cc1.[Cl-].[Cl-]` [Methyl Green]: the “Spectral Absorption Ranges and Peaks” value is recorded as 560+ nm.
For `CNc1ccc2nc3ccc(N)cc3[s+]c2c1.[Cl-]` [Azure C], the “Spectral Absorption Ranges and Peaks” value is on record as 580-640 nm.
On to `O=S(=O)([O-])c1cc(S(=O)(=O)[O-])c2c(N=Nc3ccc(S(=O)(=O)[O-])c4ccccc34)c(O)ccc2c1.[Na+].[Na+].[Na+]` [New Coccine], for which the “Spectral Absorption Ranges and Peaks” value is recorded as 506 nm.
With Luxol Fast Blue, the “Spectral Absorption Ranges and Peaks” value is 500-640 nm.
As to Azure B, the “Spectral Absorption Ranges and Peaks” value was 580+ nm.
Turning to `O=C1/C(=C2\Nc3ccc(S(=O)(=O)[O-])cc3C2=O)Nc2ccc(S(=O)(=O)[O-])cc21.[Na+].[Na+]` [Indigo Carmine], the “Spectral Absorption Ranges and Peaks” value is on record as 608 nm.
On to `Nc1c(/N=N/c2ccc(-c3ccc(/N=N/c4cc(S(=O)(=O)O)c5ccccc5c4N)cc3)cc2)cc(S(=O)(=O)O)c2ccccc12` [Congo Red], for which the “Spectral Absorption Ranges and Peaks” value is listed as 400-560 nm.
Turning to `Cc1cc(-c2ccc(/N=N/c3c(S(=O)(=O)O)cc4cc(S(=O)(=O)O)cc(N)c4c3O)c(C)c2)ccc1/N=N/c1c(S(=O)(=O)O)cc2cc(S(=O)(=O)O)cc(N)c2c1O` [Trypan Blue], the “Spectral Absorption Ranges and Peaks” value is 500+ nm.
Regarding Brilliant Cresyl Blue, the “Spectral Absorption Ranges and Peaks” value is reported as 550+ nm.
As for “Silicon phthalocyanine [Silicon phthalocyanine (Pc4)]”, the “Spectral Absorption Ranges and Peaks” value is on record as 675 nm.
On to `Cc1cc2nc3c(=O)[nH]c(=O)nc-3n(C[C@H](O)[C@H](O)[C@H](O)COP(=O)([O-])O)c2cc1C.[Na+]` [Riboflavin 5′-monophosphate sodium salt], for which the “Spectral Absorption Ranges and Peaks” value was 441 nm.
As for `NCC(=O)CCC(=O)O` [ALA], the “Spectral Absorption Ranges and Peaks” value is on record as 635 nm.
For `Cc1cc2nc3ccc(N(C)C)cc3nc2cc1N.Cl` [Neutral Red], the “Spectral Absorption Ranges and Peaks” value is listed as 480-570 nm.
In the case of Aniline Blue, the “Spectral Absorption Ranges and Peaks” value is listed as 550-620 nm.
In the case of Sudan Red, the “Spectral Absorption Ranges and Peaks” value is 450-590 nm.
For the compound `CC(C)=CCC/C(C)=C/C=C/C(C)=C/C=C/C(C)=C/C=C/C=C(C)/C=C/C=C(C)/C=C/C=C(\C)CCC=C(C)C` [Lycopene], the “Spectral Absorption Ranges and Peaks” value was 530 nm.
Take `O=S(=O)(O)c1cc(S(=O)(=O)O)c2c(/N=N/c3ccccc3)c(O)ccc2c1` [Orange G]: the “Spectral Absorption Ranges and Peaks” value is 450-510 nm.
For `CCN(Cc1cccc(S(=O)(=O)[O-])c1)c1ccc(C(=C2C=CC(=[N+](CC)Cc3cccc(S(=O)(=O)[O-])c3)C=C2)c2ccccc2S(=O)(=O)[O-])cc1.[Na+].[Na+]` [Erioglaucine disodium salt], the “Spectral Absorption Ranges and Peaks” value was 629 nm.
Turning to `Cc1ccccc1/N=N/c1ccc(/N=N/c2c(O)ccc3ccccc23)c(C)c1` [Sudan IV], the “Spectral Absorption Ranges and Peaks” value is 470-580 nm.
Turning to `O=S(=O)([O-])c1ccc(/N=N/c2cc(S(=O)(=O)[O-])c3ccccc3c2O)c2ccccc12.[Na+].[Na+]` [Chromotrope FB], the “Spectral Absorption Ranges and Peaks” value was 512 nm.
For the compound HPPH, the “Spectral Absorption Ranges and Peaks” value is recorded as 665 nm.
With `Nc1c(O)c(S(=O)(=O)[O-])c(O)c2c1C(=O)c1ccccc1C2=O.[Na+]` [Nuclear Fast Red], the “Spectral Absorption Ranges and Peaks” value was 460-550 nm.
Regarding `O.O=C([O-])c1ccccc1-c1c2cc(I)c(=O)c(I)c-2oc2c(I)c([O-])c(I)cc12.[Na+].[Na+]` [Erythrosin B], the “Spectral Absorption Ranges and Peaks” value is listed as 510-540 nm.
Take `Cc1cc2nc3cc(C)c(N)cc3[n+](-c3ccccc3)c2cc1N.[Cl-]` [Safranin O]: the “Spectral Absorption Ranges and Peaks” value was 470-550 nm.
Take `O=S(=O)([O-])c1cc(S(=O)(=O)[O-])c2c(N=Nc3ccc(S(=O)(=O)[O-])c4ccccc34)c(O)ccc2c1.[Na+].[Na+].[Na+]` [Brilliant Scarlet 4R]: the “Spectral Absorption Ranges and Peaks” value is listed as 503 nm.
Regarding Phthalocyanine-4, the “Spectral Absorption Ranges and Peaks” value is reported as 670 nm.
On to `CCOC(=O)c1ccccc1-c1c2cc(Br)c(=O)c(Br)c-2oc2c(Br)c([O-])c(Br)cc12.[K+]` [Ethyl Eosin], for which the “Spectral Absorption Ranges and Peaks” value is 530-550 nm.
As to Mono-N-Aspartyl Chlorin e6, the “Spectral Absorption Ranges and Peaks” value is recorded as 664 nm.
Turning to `CN(C)c1ccc2nc3ccc(=[N+](C)C)cc-3sc2c1` [Methylene Blue], the “Spectral Absorption Ranges and Peaks” value was 590+ nm.
Consider Verteporfin, for which the “Spectral Absorption Ranges and Peaks” value was 690 nm.
For `COc1cc(S(=O)(=O)[O-])c(C)cc1N=Nc1c(O)ccc2cc(S(=O)(=O)[O-])ccc12.[Na+].[Na+]` [Allura Red AC], the “Spectral Absorption Ranges and Peaks” value was 504 nm.
For the compound Taporfin Sodium, the “Spectral Absorption Ranges and Peaks” value is given as 664 nm.
With “Nickel 5,10-bis-acrylate etioporphyrin I”, the “Spectral Absorption Ranges and Peaks” value is listed as 580 nm.

Staying with this data set, now noted: visible light absorption peaks named in text.
In the case of `C=Cc1c(C)c2cc3nc(c(CC(=O)O)c4[nH]c(cc5nc(cc1[nH]2)C(C)=C5CC)c(C)c4C(=O)O)[C@@H](CCC(=O)O)[C@@H]3C` [Chlorin e6], the absorption peak is on record as 410 nm.
With Si(IV)-naphthocyanine, the absorption peak was 773 nm.

The next data set deals with multi-drug resistant Pseudomonas aeruginosa (Gram −) isolates. The settings on record: 60 different multi-drug resistant isolates.
Turning to `Cc1cc2nc3ccc(N(C)C)cc3[s+]c2cc1N.[Cl-]` [Toluidine Blue], the “reduction of isolates with PDT” value was “significantly reduced”.

The test system of a further data set is methicillin-resistant Staphylococcus aureus (MRSA). The settings on record: with 632.8 nm light.
Take `Cc1cc2nc3ccc(N(C)C)cc3[s+]c2cc1N.[Cl-]` [Toluidine Blue]: the “eradication of MRSA” value is reported as “eradicate”.

The test system of a further data set is Multidrug-resistant Pseudomonas aeruginosa. Particulars: 635 nm light.
On to `CN(C)c1ccc2nc3ccc(=[N+](C)C)cc-3sc2c1` [Methylene Blue], for which the “susceptibility to photosensitizer and light” value is “susceptibility”.

System in a further data set: not given
Particulars: FIG. 1, representative spectral curve.
Regarding “Wild-type Firefly luciferase (FFluc): Wild-type Firefly luciferase from Photinus pyralis, uses D-luciferin, ATP dependent”, the “spectral curve runs to wavelength” value is listed as “about 680 nm”, the “spectral curve starts at wavelength” value was “about 460 nm” and the “spectral peak of emitted light” value is “about 557 nm”.
As to “Mutated Firefly luciferase S284T: mutated firefly luciferase S284T”, the “spectral curve runs to wavelength” value is on record as “about 720 nm”, the “spectral curve starts at wavelength” value was “about 520 nm” and the “spectral peak of emitted light” value is “about 630 nm”.
